The values that follow come from ChEMBL document CHEMBL5365429, “Discovery of 5-sulfonyltetrazoles as neuroblastoma differentiation agents” (Bioorg Med Chem Lett, 2023).

Type in all cases: functional, cell-based
Assay [1] has as its system BE(2)-C. Briefly: Induction of neuron differentiation in human BE2C cells assessed as neurite outgrowth by measuring neurite length at 25 uM measured after 4 days. The note with it: time 4.0 day.
The test system of assay [2] is BE(2)-C. Briefly: Antiproliferative activity against human BE2C cells assessed as reduction in cell viability at 25 uM measured after 4 days. Particulars: time 4.0 day.
Assay [3] deals with BE(2)-C. Briefly: Induction of neuron differentiation in human BE2C cells assessed as neurite outgrowth by measuring neurite length at 25 uM.
For assay [4], the system named is BE(2)-C. Briefly: Antiproliferative activity against human BE2C cells assessed as reduction in cell viability at 25 uM.
In assay [5] the test system is BE(2)-C. Briefly: Induction of neuron differentiation in human BE2C cells assessed as neurite outgrowth by measuring neurite length. Particulars: dose 50-200 µM.
Assay [6] has as its system BE(2)-C. Briefly: Antiproliferative activity against human BE2C cells assessed as reduction in cell viability. Particulars: dose 50-200 µM.
In assay [7] the test system is BE(2)-C. Briefly: Induction of neuron differentiation in human BE2C cells assessed as neurite outgrowth by measuring neurite length at 25 uM by imaging analysis.

Active and inactive are the calls of the source. The rule behind the calls is not given here.

`C=CCS(=O)(=O)c1nnnn1C`: the result with BE(2)-C [1] and in the assay with BE(2)-C [2] was Active.

Consider `Cn1nnnc1SCC1CCC1`, for which the outcome with BE(2)-C [1] was inactive.

Regarding `Cn1nnnc1S(=O)(=O)CC1CCC1`, the outcome in the assay with BE(2)-C [1] was Active. Same read-out and setting: the same measure for `Cn1nnnc1SCC#C[Si](C)(C)C`: “inactive”; for `Cn1nnnc1S(C)(=O)=O`: “Active”. In the case of `CCS(=O)(=O)c1nnnn1C`, the result with BE(2)-C [3], in the assay with BE(2)-C [4] and with BE(2)-C [7] was Active. In addition, the Activity entry in the assay on BE(2)-C [5] and in the assay on BE(2)-C [6] was “Dose-Dependent Effect” throughout. `CCSc1nnnn1C`: the outcome in the assay on BE(2)-C [1] was inactive.

Turning to `CSc1nnnn1C`, the outcome with BE(2)-C [1] was inactive. In the case of `Cn1nnnc1SCC1CC1`, in the assay with BE(2)-C [1], the result was inactive. On the same count and under the same terms, the same measure for `CCCS(=O)(=O)c1nnnn1C`: “Active”; for `C=CCSc1nnnn1C`: “inactive”. Take `CCCSc1nnnn1C`: the result in the assay with BE(2)-C [1] was inactive.
